Experimental data as given in US20220323383A1, “SMALL-MOLECULAR ADJUVANTS AND IMPLEMENTATIONS THEREOF” (JAWAHARLAL NEHRU CENTRE FOR ADVANCED SCIENTIFIC RESEARCH, priority 2019, published 2022).
Structures can show the parent of a compound that is named as a salt.

How the values were obtained:
Assay in all cases: Chequerboard combination efficacy of adjuvant with antibiotics
Format in all cases: cell-based
E. coli R3336 = system: E. coli R3336
In short: (§1)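 Two-fold chequerboard broth microdilution of adjuvant plus antibiotic; 6 h cultures in peptone diluted to ~10^5 cfu/mL, incubated 24 h at 37 °C, 150 rpm, OD600 read. Wells matching media control define inhibitory concentrations; FIC index (FICantibiotic+FICadjuvant) and potentiation factor (MIC alone/MIC with adjuvant) calculated.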

P. aeruginosa R590 = conditions: P. aeruginosa R590
In short: as §1

A. baumannii R674 = system: A. baumannii R674
In short: as §1

K. pneumoniae R3934 = system: K. pneumoniae R3934
In short: as §1

NCCCC[C@H](N)C(=O)NCCCCCCN(CCCCCCNC(=O)[C@@H](N)CCCCN)C(=O)Cc1cccc2ccccc12 [Compound 13, N,N-bis-[(6-(^LLys)amido)hexyl] naphthyl ethanamide tetrakistrifluoroacetate] was tested, and the FICI (E. coli R3336; antibiotic Fusidic acid) was under 0.125, the “MIC of antibiotic in presence of adjuvant” value (from here on “MIC of antibiotic”) (E. coli R3336; antibiotic Fusidic acid) was 32 µg/mL and the Potentiation factor (E. coli R3336; antibiotic Fusidic acid) was over 16. The “MIC of antibiotic” value (E. coli R3336; antibiotic Linezolid) was “No potentiation”, the FICI (E. coli R3336; antibiotic Minocycline) was under 0.031 and the “MIC of antibiotic” value (E. coli R3336; antibiotic Minocycline) was 0.5 µg/mL. For the same molecule, the Potentiation factor (E. coli R3336; antibiotic Minocycline) was 64, the FICI (E. coli R3336; antibiotic Rifampicin) was under 0.031 and the “MIC of antibiotic” value (E. coli R3336; antibiotic Rifampicin) was 8 µg/mL. For the same molecule, the Potentiation factor (E. coli R3336; antibiotic Rifampicin) was 64, the FICI (P. aeruginosa R590; antibiotic Chloramphenicol) was 0.375 and the “MIC of antibiotic” value (P. aeruginosa R590; antibiotic Chloramphenicol) was 32 µg/mL. For the same molecule, the Potentiation factor (P. aeruginosa R590; antibiotic Chloramphenicol) was 4, the “MIC of antibiotic” value (P. aeruginosa R590; antibiotic Colistin) was “No potentiation” and the “MIC of antibiotic” value (P. aeruginosa R590; antibiotic Daptomycin) was “No potentiation”. For the same molecule, the FICI (P. aeruginosa R590; antibiotic Fusidic acid) was 0.094, the “MIC of antibiotic” value (P. aeruginosa R590; antibiotic Fusidic acid) was 2 µg/mL and the Potentiation factor (P. aeruginosa R590; antibiotic Fusidic acid) was 32. The FICI (P. aeruginosa R590; antibiotic Linezolid) was 0.1875, the “MIC of antibiotic” value (P. aeruginosa R590; antibiotic Linezolid) was 32 µg/mL and the Potentiation factor (P. aeruginosa R590; antibiotic Linezolid) was 8. The FICI (P. aeruginosa R590; antibiotic Minocycline) was 0.1875, the “MIC of antibiotic” value (P. aeruginosa R590; antibiotic Minocycline) was 0.5 µg/mL and the Potentiation factor (P. aeruginosa R590; antibiotic Minocycline) was 16. For the same molecule, the FICI (P. aeruginosa R590; antibiotic Rifampicin) was under 0.019, the “MIC of antibiotic” value (P. aeruginosa R590; antibiotic Rifampicin) was under 0.5 µg/mL and the Potentiation factor (P. aeruginosa R590; antibiotic Rifampicin) was over 256. The FICI (P. aeruginosa R590; antibiotic Tetracycline) was 0.266, the “MIC of antibiotic” value (P. aeruginosa R590; antibiotic Tetracycline) was 4 µg/mL and the Potentiation factor (P. aeruginosa R590; antibiotic Tetracycline) was 64. The “MIC of antibiotic” value (A. baumannii R674; antibiotic Ampicillin) was “No potentiation”, the FICI (A. baumannii R674; antibiotic Ciprofloxacin) was 0.3125 and the “MIC of antibiotic” value (A. baumannii R674; antibiotic Ciprofloxacin) was 64 µg/mL. For the same molecule, the Potentiation factor (A. baumannii R674; antibiotic Ciprofloxacin) was 4, the FICI (A. baumannii R674; antibiotic Erythromycin) was 0.156 and the “MIC of antibiotic” value (A. baumannii R674; antibiotic Erythromycin) was 16 µg/mL. For the same molecule, the Potentiation factor (A. baumannii R674; antibiotic Erythromycin) was 32, the FICI (A. baumannii R674; antibiotic Fusidic acid) was under 0.023 and the “MIC of antibiotic” value (A. baumannii R674; antibiotic Fusidic acid) was under 0.5 µg/mL. For the same molecule, the Potentiation factor (A. baumannii R674; antibiotic Fusidic acid) was over 128, the FICI (A. baumannii R674; antibiotic Linezolid) was 0.1875 and the “MIC of antibiotic” value (A. baumannii R674; antibiotic Linezolid) was 32 µg/mL. The Potentiation factor (A. baumannii R674; antibiotic Linezolid) was 8, the FICI (A. baumannii R674; antibiotic Minocycline) was 0.1875 and the “MIC of antibiotic” value (A. baumannii R674; antibiotic Minocycline) was 0.5 µg/mL. For the same molecule, the Potentiation factor (A. baumannii R674; antibiotic Minocycline) was 16, the FICI (A. baumannii R674; antibiotic Rifampicin) was 0.023 and the “MIC of antibiotic” value (A. baumannii R674; antibiotic Rifampicin) was 1 µg/mL. The Potentiation factor (A. baumannii R674; antibiotic Rifampicin) was 64, the “MIC of antibiotic” value (A. baumannii R674; antibiotic Streptomycin) was “No potentiation” and the FICI (A. baumannii R674; antibiotic Tetracycline) was 0.375. For the same molecule, the “MIC of antibiotic” value (A. baumannii R674; antibiotic Tetracycline) was 16 µg/mL, the Potentiation factor (A. baumannii R674; antibiotic Tetracycline) was 8 and the FICI (A. baumannii R674; antibiotic Vancomycin) was 0.5625. The “MIC of antibiotic” value (A. baumannii R674; antibiotic Vancomycin) was 32 µg/mL, the Potentiation factor (A. baumannii R674; antibiotic Vancomycin) was 2 and the FICI (K. pneumoniae R3934; antibiotic Fusidic acid) was under 0.133. For the same molecule, the “MIC of antibiotic” value (K. pneumoniae R3934; antibiotic Fusidic acid) was 4 µg/mL, the Potentiation factor (K. pneumoniae R3934; antibiotic Fusidic acid) was 128 and the FICI (K. pneumoniae R3934; antibiotic Linezolid) was under 0.25. For the same molecule, the “MIC of antibiotic” value (K. pneumoniae R3934; antibiotic Linezolid) was 64 µg/mL, the Potentiation factor (K. pneumoniae R3934; antibiotic Linezolid) was over 8 and the FICI (K. pneumoniae R3934; antibiotic Minocycline) was under 0.07. The “MIC of antibiotic” value (K. pneumoniae R3934; antibiotic Minocycline) was 0.5 µg/mL, the Potentiation factor (K. pneumoniae R3934; antibiotic Minocycline) was 128 and the FICI (K. pneumoniae R3934; antibiotic Rifampicin) was under 0.064. For the same molecule, the “MIC of antibiotic” value (K. pneumoniae R3934; antibiotic Rifampicin) was 1 µg/mL and the Potentiation factor (K. pneumoniae R3934; antibiotic Rifampicin) was 512.

NCCCC[C@H](N)C(=O)NCCCCCCN(CCCCCCNC(=O)[C@@H](N)CCCCN)C(=O)CC(c1ccccc1)c1ccccc1 [Compound 14, N,N-bis-[(6-(^LLys)amido)hexyl] 3,3-diphenyl propanamide tetrakis trifluoroacetate] was tested, and the FICI (E. coli R3336; antibiotic Fusidic acid) was under 0.0625, the “MIC of antibiotic” value (E. coli R3336; antibiotic Fusidic acid) was 16 µg/mL and the Potentiation factor (E. coli R3336; antibiotic Fusidic acid) was over 32. For the same molecule, the “MIC of antibiotic” value (E. coli R3336; antibiotic Linezolid) was “No potentiation”, the FICI (E. coli R3336; antibiotic Minocycline) was under 0.0156 and the “MIC of antibiotic” value (E. coli R3336; antibiotic Minocycline) was under 0.25 µg/mL. For the same molecule, the Potentiation factor (E. coli R3336; antibiotic Minocycline) was over 128, the FICI (E. coli R3336; antibiotic Rifampicin) was under 0.047 and the “MIC of antibiotic” value (E. coli R3336; antibiotic Rifampicin) was 4 µg/mL. For the same molecule, the Potentiation factor (E. coli R3336; antibiotic Rifampicin) was 128, the FICI (P. aeruginosa R590; antibiotic Chloramphenicol) was under 0.3125 and the “MIC of antibiotic” value (P. aeruginosa R590; antibiotic Chloramphenicol) was 32 µg/mL. For the same molecule, the Potentiation factor (P. aeruginosa R590; antibiotic Chloramphenicol) was 4, the FICI (P. aeruginosa R590; antibiotic Colistin) was under 0.266 and the “MIC of antibiotic” value (P. aeruginosa R590; antibiotic Colistin) was 0.25 µg/mL. For the same molecule, the Potentiation factor (P. aeruginosa R590; antibiotic Colistin) was 4, the “MIC of antibiotic” value (P. aeruginosa R590; antibiotic Daptomycin) was “No potentiation” and the FICI (P. aeruginosa R590; antibiotic Fusidic acid) was under 0.012. The “MIC of antibiotic” value (P. aeruginosa R590; antibiotic Fusidic acid) was under 0.25 µg/mL, the Potentiation factor (P. aeruginosa R590; antibiotic Fusidic acid) was over 256 and the FICI (P. aeruginosa R590; antibiotic Linezolid) was under 0.156. The “MIC of antibiotic” value (P. aeruginosa R590; antibiotic Linezolid) was 32 µg/mL, the Potentiation factor (P. aeruginosa R590; antibiotic Linezolid) was 8 and the FICI (P. aeruginosa R590; antibiotic Minocycline) was under 0.156. For the same molecule, the “MIC of antibiotic” value (P. aeruginosa R590; antibiotic Minocycline) was 1 µg/mL, the Potentiation factor (P. aeruginosa R590; antibiotic Minocycline) was 8 and the FICI (P. aeruginosa R590; antibiotic Rifampicin) was under 0.016. The “MIC of antibiotic” value (P. aeruginosa R590; antibiotic Rifampicin) was under 0.125 µg/mL, the Potentiation factor (P. aeruginosa R590; antibiotic Rifampicin) was over 1024 and the FICI (P. aeruginosa R590; antibiotic Tetracycline) was under 0.1875. For the same molecule, the “MIC of antibiotic” value (P. aeruginosa R590; antibiotic Tetracycline) was 16 µg/mL, the Potentiation factor (P. aeruginosa R590; antibiotic Tetracycline) was 16 and the “MIC of antibiotic” value (A. baumannii R674; antibiotic Ampicillin) was “No potentiation”. For the same molecule, the FICI (A. baumannii R674; antibiotic Ciprofloxacin) was under 0.281, the “MIC of antibiotic” value (A. baumannii R674; antibiotic Ciprofloxacin) was 64 µg/mL and the Potentiation factor (A. baumannii R674; antibiotic Ciprofloxacin) was 4. For the same molecule, the FICI (A. baumannii R674; antibiotic Erythromycin) was under 0.0625, the “MIC of antibiotic” value (A. baumannii R674; antibiotic Erythromycin) was 16 µg/mL and the Potentiation factor (A. baumannii R674; antibiotic Erythromycin) was 32. For the same molecule, the FICI (A. baumannii R674; antibiotic Fusidic acid) was under 0.012, the “MIC of antibiotic” value (A. baumannii R674; antibiotic Fusidic acid) was under 0.5 µg/mL and the Potentiation factor (A. baumannii R674; antibiotic Fusidic acid) was over 128. For the same molecule, the FICI (A. baumannii R674; antibiotic Linezolid) was under 0.156, the “MIC of antibiotic” value (A. baumannii R674; antibiotic Linezolid) was 32 µg/mL and the Potentiation factor (A. baumannii R674; antibiotic Linezolid) was 8. For the same molecule, the FICI (A. baumannii R674; antibiotic Minocycline) was under 0.129, the “MIC of antibiotic” value (A. baumannii R674; antibiotic Minocycline) was 1 µg/mL and the Potentiation factor (A. baumannii R674; antibiotic Minocycline) was 8. The FICI (A. baumannii R674; antibiotic Rifampicin) was under 0.017, the “MIC of antibiotic” value (A. baumannii R674; antibiotic Rifampicin) was under 0.125 µg/mL and the Potentiation factor (A. baumannii R674; antibiotic Rifampicin) was over 512. For the same molecule, the “MIC of antibiotic” value (A. baumannii R674; antibiotic Streptomycin) was “No potentiation”, the FICI (A. baumannii R674; antibiotic Tetracycline) was under 0.25 and the “MIC of antibiotic” value (A. baumannii R674; antibiotic Tetracycline) was 16 µg/mL. The Potentiation factor (A. baumannii R674; antibiotic Tetracycline) was 8, the FICI (A. baumannii R674; antibiotic Vancomycin) was under 0.3125 and the “MIC of antibiotic” value (A. baumannii R674; antibiotic Vancomycin) was 16 µg/mL. For the same molecule, the Potentiation factor (A. baumannii R674; antibiotic Vancomycin) was 4, the FICI (K. pneumoniae R3934; antibiotic Fusidic acid) was under 0.1289 and the “MIC of antibiotic” value (K. pneumoniae R3934; antibiotic Fusidic acid) was 2 µg/mL. For the same molecule, the Potentiation factor (K. pneumoniae R3934; antibiotic Fusidic acid) was 256, the FICI (K. pneumoniae R3934; antibiotic Linezolid) was under 0.1328 and the “MIC of antibiotic” value (K. pneumoniae R3934; antibiotic Linezolid) was 64 µg/mL. For the same molecule, the Potentiation factor (K. pneumoniae R3934; antibiotic Linezolid) was over 8, the FICI (K. pneumoniae R3934; antibiotic Minocycline) was under 0.1328 and the “MIC of antibiotic” value (K. pneumoniae R3934; antibiotic Minocycline) was 0.5 µg/mL. The Potentiation factor (K. pneumoniae R3934; antibiotic Minocycline) was 128, the FICI (K. pneumoniae R3934; antibiotic Rifampicin) was under 0.126 and the “MIC of antibiotic” value (K. pneumoniae R3934; antibiotic Rifampicin) was 0.5 µg/mL. The Potentiation factor (K. pneumoniae R3934; antibiotic Rifampicin) was 1024.
